Test results from ChEMBL document CHEMBL1134862, “Rational design of 4,5-disubstituted-5,7-dihydro-pyrrolo[2,3-d]pyrimidin-6-ones as a novel class of inhibitors of epidermal growth factor receptor (EGF-R) and Her2(p185(erbB)) tyrosine kinases” (Bioorg Med Chem Lett, 2002).

Columns and labels:
[1] = biological target: Vascular endothelial growth factor receptor 2 (Homo sapiens, UniProt P35968); experiment: Inhibition of tyrosine phosphorylation in cells expressing human VEGFR2 (Flk-1/KDR) kinase
[2] = biological target: Receptor tyrosine-protein kinase erbB-2 (Homo sapiens, UniProt P04626); experiment: Inhibition of autophosphorylation of human Her (p185erbB) tyrosine kinase expressed in SKOV-3 cells; assay type: functional, cell-based, SK-OV-3
[3] = biological target: T1, Epidermal growth factor receptor (Homo sapiens, UniProt P00533); experiment: Inhibition of autophosphorylation of human epidermal growth factor-receptor (EGF-R) expressed in A431 cells; assay type: functional, cell-based, A-431
[4] = biological target: Platelet-derived growth factor receptor beta (Homo sapiens, UniProt P09619); experiment: Inhibitory activity towards tyrosine phosphorylation of PDGF-receptor beta kinase
[5] = biological target: T1, Epidermal growth factor receptor; experiment: Inhibitory activity towards tyrosine phosphorylation for the epidermal growth factor-receptor kinase

Sequence of Platelet-derived growth factor receptor beta (P09619 whole entry): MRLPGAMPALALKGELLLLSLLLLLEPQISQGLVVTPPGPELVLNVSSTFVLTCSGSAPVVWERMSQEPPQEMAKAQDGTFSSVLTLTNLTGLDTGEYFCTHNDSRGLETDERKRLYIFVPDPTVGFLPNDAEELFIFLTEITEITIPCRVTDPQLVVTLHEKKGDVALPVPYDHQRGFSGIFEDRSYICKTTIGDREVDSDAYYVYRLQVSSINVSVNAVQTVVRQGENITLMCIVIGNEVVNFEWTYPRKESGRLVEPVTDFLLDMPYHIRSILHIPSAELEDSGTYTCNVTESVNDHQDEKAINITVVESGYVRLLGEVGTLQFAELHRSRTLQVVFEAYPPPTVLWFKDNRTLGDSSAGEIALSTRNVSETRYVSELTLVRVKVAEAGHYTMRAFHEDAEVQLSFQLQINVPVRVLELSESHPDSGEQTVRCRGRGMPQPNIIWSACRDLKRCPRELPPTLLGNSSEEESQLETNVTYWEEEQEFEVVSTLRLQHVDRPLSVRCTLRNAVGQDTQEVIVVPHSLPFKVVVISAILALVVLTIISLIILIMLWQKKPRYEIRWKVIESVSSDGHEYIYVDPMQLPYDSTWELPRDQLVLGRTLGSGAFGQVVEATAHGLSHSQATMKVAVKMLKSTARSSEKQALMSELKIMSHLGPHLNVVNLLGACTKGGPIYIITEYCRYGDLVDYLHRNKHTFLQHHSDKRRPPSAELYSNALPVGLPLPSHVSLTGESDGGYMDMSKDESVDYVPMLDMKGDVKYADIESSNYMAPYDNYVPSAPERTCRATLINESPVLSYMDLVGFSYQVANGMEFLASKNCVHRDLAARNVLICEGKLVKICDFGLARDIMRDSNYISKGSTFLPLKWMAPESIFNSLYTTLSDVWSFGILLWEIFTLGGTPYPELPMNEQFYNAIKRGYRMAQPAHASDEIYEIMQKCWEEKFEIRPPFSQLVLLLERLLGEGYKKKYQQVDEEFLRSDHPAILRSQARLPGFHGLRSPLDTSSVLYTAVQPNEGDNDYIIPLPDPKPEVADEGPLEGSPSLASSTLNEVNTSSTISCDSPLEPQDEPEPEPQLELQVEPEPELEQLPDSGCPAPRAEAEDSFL
Sequence of Vascular endothelial growth factor receptor 2 (P35968 whole entry): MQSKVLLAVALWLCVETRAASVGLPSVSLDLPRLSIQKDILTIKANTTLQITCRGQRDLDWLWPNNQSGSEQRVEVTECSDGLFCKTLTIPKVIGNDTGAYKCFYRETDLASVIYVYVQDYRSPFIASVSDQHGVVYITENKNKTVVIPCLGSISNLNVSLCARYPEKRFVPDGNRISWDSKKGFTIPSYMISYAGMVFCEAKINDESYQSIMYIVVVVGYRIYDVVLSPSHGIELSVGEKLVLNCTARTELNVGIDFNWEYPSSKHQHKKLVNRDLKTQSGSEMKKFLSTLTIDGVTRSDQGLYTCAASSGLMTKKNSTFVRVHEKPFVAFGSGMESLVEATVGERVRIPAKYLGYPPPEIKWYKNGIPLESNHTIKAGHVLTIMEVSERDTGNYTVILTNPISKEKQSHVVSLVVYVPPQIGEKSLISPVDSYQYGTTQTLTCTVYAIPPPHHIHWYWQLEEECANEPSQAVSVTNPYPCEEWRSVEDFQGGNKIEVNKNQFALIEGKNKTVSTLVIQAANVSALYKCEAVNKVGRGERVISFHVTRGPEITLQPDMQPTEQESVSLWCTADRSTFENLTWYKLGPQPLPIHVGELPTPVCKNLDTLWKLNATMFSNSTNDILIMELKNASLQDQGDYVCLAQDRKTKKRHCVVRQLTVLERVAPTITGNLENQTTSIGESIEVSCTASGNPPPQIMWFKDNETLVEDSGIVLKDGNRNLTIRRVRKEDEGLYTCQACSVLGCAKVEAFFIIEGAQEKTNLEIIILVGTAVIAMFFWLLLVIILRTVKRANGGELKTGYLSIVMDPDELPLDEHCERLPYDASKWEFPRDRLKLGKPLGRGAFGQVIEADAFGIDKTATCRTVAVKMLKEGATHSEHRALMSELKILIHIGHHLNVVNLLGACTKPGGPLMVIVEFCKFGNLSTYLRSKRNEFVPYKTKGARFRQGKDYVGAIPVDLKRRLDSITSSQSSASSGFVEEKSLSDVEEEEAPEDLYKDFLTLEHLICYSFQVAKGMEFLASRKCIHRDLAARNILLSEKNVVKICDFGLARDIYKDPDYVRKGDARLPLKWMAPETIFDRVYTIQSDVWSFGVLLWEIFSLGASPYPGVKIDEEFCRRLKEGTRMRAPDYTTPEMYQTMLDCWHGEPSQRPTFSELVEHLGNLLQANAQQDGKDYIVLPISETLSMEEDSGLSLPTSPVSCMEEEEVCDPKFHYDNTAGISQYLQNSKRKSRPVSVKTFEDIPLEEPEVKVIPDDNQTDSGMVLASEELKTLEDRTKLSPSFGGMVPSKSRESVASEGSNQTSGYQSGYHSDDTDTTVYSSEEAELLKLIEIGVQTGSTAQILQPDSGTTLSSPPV
Sequence of Receptor tyrosine-protein kinase erbB-2 (P04626 whole entry): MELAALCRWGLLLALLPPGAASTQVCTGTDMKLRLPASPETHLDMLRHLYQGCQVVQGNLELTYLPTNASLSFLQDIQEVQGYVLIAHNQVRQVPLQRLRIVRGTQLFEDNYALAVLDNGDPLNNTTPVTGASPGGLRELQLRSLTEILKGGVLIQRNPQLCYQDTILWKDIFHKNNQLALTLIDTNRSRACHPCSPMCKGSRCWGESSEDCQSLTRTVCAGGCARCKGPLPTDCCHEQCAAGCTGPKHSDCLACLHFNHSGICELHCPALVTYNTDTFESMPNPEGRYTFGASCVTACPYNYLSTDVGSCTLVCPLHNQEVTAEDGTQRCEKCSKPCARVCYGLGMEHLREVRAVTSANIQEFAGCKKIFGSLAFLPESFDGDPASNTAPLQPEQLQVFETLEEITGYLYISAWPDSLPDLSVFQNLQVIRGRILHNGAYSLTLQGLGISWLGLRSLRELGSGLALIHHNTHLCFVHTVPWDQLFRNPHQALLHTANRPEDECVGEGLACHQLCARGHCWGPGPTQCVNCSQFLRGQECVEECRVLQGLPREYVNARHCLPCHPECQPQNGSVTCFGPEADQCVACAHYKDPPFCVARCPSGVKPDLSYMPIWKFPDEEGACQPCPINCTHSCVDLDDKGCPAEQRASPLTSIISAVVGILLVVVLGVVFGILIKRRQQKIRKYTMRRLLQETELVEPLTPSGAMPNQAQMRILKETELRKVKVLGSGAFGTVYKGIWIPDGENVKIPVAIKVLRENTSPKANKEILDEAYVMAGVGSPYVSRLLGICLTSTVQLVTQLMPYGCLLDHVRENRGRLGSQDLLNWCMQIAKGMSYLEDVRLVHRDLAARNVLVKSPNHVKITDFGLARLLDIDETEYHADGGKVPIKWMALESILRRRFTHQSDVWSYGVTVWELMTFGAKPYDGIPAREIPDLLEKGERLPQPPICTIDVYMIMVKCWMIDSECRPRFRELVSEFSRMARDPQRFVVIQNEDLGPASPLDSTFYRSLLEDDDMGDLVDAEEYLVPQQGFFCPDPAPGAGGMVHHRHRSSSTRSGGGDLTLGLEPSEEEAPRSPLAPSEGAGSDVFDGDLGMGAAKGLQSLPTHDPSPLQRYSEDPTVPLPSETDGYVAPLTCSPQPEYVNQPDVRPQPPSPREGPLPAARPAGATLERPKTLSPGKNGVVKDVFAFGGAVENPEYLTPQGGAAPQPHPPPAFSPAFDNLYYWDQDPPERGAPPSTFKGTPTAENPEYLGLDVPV
T1 sequence (P00533 whole entry): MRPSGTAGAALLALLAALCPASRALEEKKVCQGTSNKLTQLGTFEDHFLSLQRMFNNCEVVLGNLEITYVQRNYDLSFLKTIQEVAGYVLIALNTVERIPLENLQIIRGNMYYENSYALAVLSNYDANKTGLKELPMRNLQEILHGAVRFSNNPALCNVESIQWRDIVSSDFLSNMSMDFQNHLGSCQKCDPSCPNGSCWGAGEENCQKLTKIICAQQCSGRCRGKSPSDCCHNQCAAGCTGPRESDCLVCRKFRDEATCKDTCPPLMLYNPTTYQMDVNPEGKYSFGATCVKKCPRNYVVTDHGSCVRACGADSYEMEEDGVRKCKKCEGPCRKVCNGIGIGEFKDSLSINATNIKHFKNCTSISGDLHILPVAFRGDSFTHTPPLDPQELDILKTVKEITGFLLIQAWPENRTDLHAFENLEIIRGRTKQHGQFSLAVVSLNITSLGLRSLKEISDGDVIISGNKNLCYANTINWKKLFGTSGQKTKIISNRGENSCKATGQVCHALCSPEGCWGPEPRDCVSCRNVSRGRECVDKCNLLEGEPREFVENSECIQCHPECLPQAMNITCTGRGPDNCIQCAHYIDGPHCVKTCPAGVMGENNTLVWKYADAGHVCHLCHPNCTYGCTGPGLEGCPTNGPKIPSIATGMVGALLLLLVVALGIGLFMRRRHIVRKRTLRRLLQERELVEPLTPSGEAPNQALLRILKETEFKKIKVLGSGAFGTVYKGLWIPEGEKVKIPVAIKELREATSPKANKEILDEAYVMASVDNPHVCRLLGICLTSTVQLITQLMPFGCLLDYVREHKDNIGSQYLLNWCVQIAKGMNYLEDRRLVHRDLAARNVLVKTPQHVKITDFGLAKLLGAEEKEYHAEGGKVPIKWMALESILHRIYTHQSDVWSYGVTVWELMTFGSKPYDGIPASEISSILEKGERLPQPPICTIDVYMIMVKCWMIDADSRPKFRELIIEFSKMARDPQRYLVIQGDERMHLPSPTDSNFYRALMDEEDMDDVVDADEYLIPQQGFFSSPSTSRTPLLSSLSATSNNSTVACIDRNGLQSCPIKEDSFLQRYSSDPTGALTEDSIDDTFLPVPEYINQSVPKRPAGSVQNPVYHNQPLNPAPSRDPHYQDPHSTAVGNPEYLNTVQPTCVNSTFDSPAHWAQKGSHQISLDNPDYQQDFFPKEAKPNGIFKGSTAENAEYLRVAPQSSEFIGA

Structure (SMILES)	IC50 [1] [nM]	IC50 [2] [nM]	IC50 [3] [nM]	IC50 [4] [nM]	IC50 [5] [nM]
Cc1cc(C(=O)NCCN2CCOCC2)[nH]c1/C=C1\C(=O)Nc2ncnc(Nc3ccc4c(ccn4Cc4ccccc4)c3)c21	3470	40	200	> 100000	1.1
O=C1Nc2ncnc(Nc3ccc(F)c(Cl)c3)c2/C1=C/c1ccc(C(=O)NCCN2CCOCC2)[nH]1	> 20000			> 100000	22
Cc1[nH]c(/C=C2\C(=O)Nc3ncnc(Nc4ccc(F)c(Cl)c4)c32)c(C)c1CCC(=O)O	> 20000			> 20000	180
CCN(CC)CCNC(=O)c1cc(C)c(/C=C2\C(=O)Nc3ncnc(Nc4ccc(Cl)cc4F)c32)[nH]1	40		500	5620	450
CCN(CC)CCNC(=O)c1c(C)[nH]c(/C=C2\C(=O)Nc3ncnc(Nc4ccc(F)c(Cl)c4)c32)c1C	3470			> 20000	200
Cc1cc(C(=O)N2CCOCC2)[nH]c1/C=C1\C(=O)Nc2ncnc(Nc3ccc4c(cnn4Cc4ccccc4)c3)c21	2100	100	100	> 10000	1.8
Cc1cc(C(=O)N2CCOCC2)[nH]c1/C=C1\C(=O)Nc2ncnc(Nc3ccc4c(ccn4Cc4ccccc4)c3)c21	2050	100	100	> 20000	4.5
Cc1cc(C(=O)N2CCOCC2)[nH]c1/C=C1\C(=O)Nc2ncnc(N3CCCCC3)c21	> 20000			> 20000	> 20000
Cc1cc(C)c(/C=C2\C(=O)N(C)c3ncnc(Nc4ccc(F)c(Cl)c4)c32)[nH]1	5820			> 20000	> 20000
Cc1cc(C(=O)N2CCOCC2)[nH]c1/C=C1\C(=O)Nc2ncnc(Nc3ccc(F)c(Cl)c3)c21	> 20000	400	40	> 20000	170
C#Cc1cccc(Nc2ncnc3c2/C(=C/c2[nH]c(C(=O)NCCN4CCOCC4)cc2C)C(=O)N3)c1	> 20000	40	40	> 20000	18

Next, values leading:

IC50 [1] [nM]	IC50 [2] [nM]	IC50 [3] [nM]	IC50 [4] [nM]	IC50 [5] [nM]	Structure (SMILES)
360				0.45	CCN(CC)CC(O)CNC(=O)c1cc(C)c(/C=C2\C(=O)Nc3ncnc(Nc4ccc(F)c(Cl)c4)c32)[nH]1 (stereo not drawn)
> 20000			> 20000	410	Cc1c(C(=O)N2CCN(C)CC2)c[nH]c1/C=C1\C(=O)Nc2ncnc(Nc3ccc(F)c(Cl)c3)c21
8920	> 5000	> 5000	> 20000	29	Cc1cc(C(=O)O)[nH]c1/C=C1\C(=O)Nc2ncnc(Nc3ccc(F)c(Cl)c3)c21
> 20000	200	100	> 20000	2.8	Cc1cc(C(=O)N2CCN(C)CC2)[nH]c1/C=C1\C(=O)Nc2ncnc(Nc3ccc(F)c(Cl)c3)c21
> 20000			> 20000	4.7	Cc1cc(CCC(=O)O)[nH]c1/C=C1\C(=O)Nc2ncnc(Nc3ccc(F)c(Cl)c3)c21
10100			> 20000	5310	Cc1cc(C(=O)NCCN2CCOCC2)[nH]c1/C=C1\C(=O)N(C)c2ncnc(Nc3ccc(F)c(Cl)c3)c21
3460	> 5000	5000	> 20000	1410	Cc1cc(C(=O)N2CCOCC2)[nH]c1/C=C1\C(=O)Nc2ncnc(Nc3ccc4c(c3)CCC4)c21
> 20000	100	200	> 20000	13	CCN1CCN(C(=O)c2cc(C)c(/C=C3\C(=O)Nc4ncnc(Nc5ccc(F)c(Cl)c5)c43)[nH]2)CC1
16500	300	300	> 100000	41	Cc1cc(C)c(/C=C2\C(=O)Nc3ncnc(Nc4ccc(F)c(Cl)c4)c32)[nH]1
1630	500		> 20000		Cc1cc(C(=O)N2CC(C)NC(C)C2)[nH]c1/C=C1\C(=O)Nc2ncnc(Nc3ccc(F)c(Cl)c3)c21 (stereo not drawn)
300	200	200		1.2	CCN(CC)CCNC(=O)c1cc(C)c(/C=C2\C(=O)Nc3ncnc(Nc4ccc(F)c(Cl)c4)c32)[nH]1
> 20000	100		> 100000		Cc1cc(C(=O)NCCN2CCOCC2)[nH]c1/C=C1\C(=O)Nc2ncnc(Nc3ccc(F)c(Cl)c3)c21
> 20000			> 20000	210	Cc1cc(/C=C2\C(=O)Nc3ncnc(Nc4ccc(F)c(Cl)c4)c32)[nH]c1C(=O)N1CCN(C)CC1
